One may read the Ki as the equilibrium dissociation constant of an inhibitor or competing ligand from its target.

T1 sequence (P08473 52-750 limits assumed): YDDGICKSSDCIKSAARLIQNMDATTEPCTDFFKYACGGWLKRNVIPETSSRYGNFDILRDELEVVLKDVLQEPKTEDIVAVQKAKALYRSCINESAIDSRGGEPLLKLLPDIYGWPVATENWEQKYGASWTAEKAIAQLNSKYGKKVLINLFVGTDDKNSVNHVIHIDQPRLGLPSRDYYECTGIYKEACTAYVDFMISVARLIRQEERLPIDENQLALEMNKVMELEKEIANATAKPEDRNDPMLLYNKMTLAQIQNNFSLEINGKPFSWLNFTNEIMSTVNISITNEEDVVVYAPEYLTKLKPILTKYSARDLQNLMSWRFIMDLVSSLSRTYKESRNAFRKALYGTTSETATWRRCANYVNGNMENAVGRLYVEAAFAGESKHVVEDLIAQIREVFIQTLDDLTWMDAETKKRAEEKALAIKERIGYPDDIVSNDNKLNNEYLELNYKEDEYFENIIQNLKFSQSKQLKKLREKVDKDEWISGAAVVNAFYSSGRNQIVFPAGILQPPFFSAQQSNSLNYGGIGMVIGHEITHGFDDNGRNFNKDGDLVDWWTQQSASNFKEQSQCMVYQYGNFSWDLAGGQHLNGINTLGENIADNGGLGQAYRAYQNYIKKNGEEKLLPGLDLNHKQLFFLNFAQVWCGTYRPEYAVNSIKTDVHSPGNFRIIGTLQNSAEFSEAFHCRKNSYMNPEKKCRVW

The test has as its target T1, human NEP (Homo sapiens, UniProt P08473).
T1 construct: purchased R&D Systems, Minneapolis, Minn; 1182-ZN
The test can be described thus: In vitro enzyme inhibition assay at human NEP (fluorogenic peptide substrate). Format: biochemical. Particulars: pKi values at human NEP (recombinant), given as ranges. As to the method: The inhibitory activities of compounds at human and rat neprilysin (EC 3.4.24.11; NEP) and human angiotensin converting enzyme (ACE) were determined using in vitro assays as described below.
Recombinant human NEP and recombinant human ACE were obtained commercially (R&D Systems, Minneapolis, Minn., catalog numbers 1182-ZN and 929-ZN, respectively). The fluorogenic peptide substrate Mca-D-Arg-Arg-Leu-Dap-(Dnp)-OH (Medeiros et al. (1997) Braz. J. Med. Biol. Res. 30:1157-62; Anaspec, San Jose, Calif.) and Abz-Phe-Arg-Lys(Dnp)-Pro-OH (Araujo et al. (2000) Biochemistry 39:8519-8525; Bachem, Torrance, Calif.) were used in the NEP and ACE assays respectively.
The assays were performed in 384-well white opaque plates at 37° C. using the fluorogenic peptide substrates at a concentration of 10 μM in Assay Buffer (NEP: 50 mM HEPES, pH 7.5, 100 mM NaCl, 0.01% polyethylene glycol sorbitan monolaurate (Tween-20), […]; ACE: 50 mM HEPES, pH 7.5, 100 mM NaCl, 0.01% Tween-20, 1 μM ZnSO4).
Test compounds were assayed over the range of concentrations from 10 μM to 20 pM. Test compounds were added to the enzymes and incubated for 30 minute at 37° C. prior to initiating the reaction by the addition of substrate. Reactions were terminated after 20 minutes of incubation at 37° C. by the addition of glacial acetic acid to a final concentration of 3.6% (v/v).
Plates were read on a fluorometer with excitation and emission wavelengths set to 320 nm and 405 nm, respectively. Inhibition constants were obtained by nonlinear regression of the data using the equation (GraphPad Software, Inc., San Diego, Calif.): ν=ν0/[1+(I/K′)] where ν is the reaction rate, ν0 is the uninhibited reaction rate, I is the inhibitor concentration and K′ is the apparent inhibition constant.
Compounds of the invention were tested in this assay and found to have pKi values at human NEP as follows.
For the compound `Cc1ccc(Cl)cc1-c1ccc(CN(C[C@@](C)(O)C(=O)O)NC(=O)c2nnn[nH]2)cc1` [Example 7-24, (R)-3-[N-(5′-Chloro-2′-methyl-biphenyl-4-ylmethyl)-N′-(1H-tetrazole-5-carbonyl)-hydrazino]-2-hydroxy-2-methyl-propionic acid], the inhibition constant Ki was 1.26 to 10 nM.

For `O=C(N[C@H](Cc1ccc(-c2ccccc2)cc1)CC1(C(=O)O)CC1)c1cc(C(=O)O)[nH]n1` [Example 10A, 5-[(R)-2-Biphenyl-4-yl-1-(1-carboxy-cyclopropylmethyl)-ethylcarbamoyl]-2H-pyrazole-3-carboxylic acid], the inhibitory constant (Ki) was no more than 1 nM.

As to `O=C(N[C@H](Cc1ccc(-c2ccccc2)cc1)CC1(C(=O)O)CC1)c1cc(O)n[nH]1` [Example 11-10, 1-{(R)-3-Biphenyl-4-yl-2-[(5-hydroxy-2H-pyrazole-3-carbonyl)-amino]-propyl}-cyclopropanecarboxylic acid], the Ki is 12.6 to 100 nM.

For `CC(C)(C[C@@H](Cc1ccc(-c2ccccc2)cc1)NC(=O)c1nc(O)n[nH]1)C(=O)O` [Example 9-3, (R)-5-Biphenyl-4-yl-4-[(5-hydroxy-2H-[1,2,4]triazole-3-carbonyl)-amino]-2,2-dimethyl-pentanoic acid], the inhibition constant Ki is 1.26 to 10 nM.

Consider `CC(C)(C[C@@H](Cc1ccc(-c2ccccc2)cc1)NC(=O)c1cc(C(=O)N2CCC(O)CC2)n[nH]1)C(=O)O` [Example 9-10, (R)-5-Biphenyl-4-yl-4-{[5-(4-hydroxy-piperidine-1-carbonyl)-2H-pyrazole-3-carbonyl]-amino}-2,2-dimethyl-pentanoic acid], for which the inhibition constant Ki is 12.6 to 100 nM.

Regarding `C[C@@](O)(CN(Cc1ccc(-c2ccccc2F)cc1)NC(=O)c1cc(O)no1)C(=O)O` [Example 7-17, (R)-3-[N-(2′-Fluorobiphenyl-4-ylmethyl)-N′-(3-hydroxy-isoxazole-5-carbonyl)-hydrazino]-2-hydroxy-2-methyl-propionic acid], the inhibition constant (Ki) was 1.26 to 10 nM.

Consider `COCCN(C)C(=O)c1cc(C(=O)N[C@H](Cc2ccc(-c3ccccc3)cc2)CC(C)(C)C(=O)O)[nH]n1` [Example 9-15, (R)-5-Biphenyl-4-yl-4-({5-[(2-methoxy-ethyl)-methyl-carbamoyl]-2H-pyrazole-3-carbonyl}-amino)-2,2-dimethyl-pentanoic acid], for which the Ki is 1.26 to 10 nM.

For the compound `CC(C)(C[C@@H](Cc1ccc(-c2ccccc2)cc1)NC(=O)c1cnc(O)nc1)C(=O)O` [Example 9-5, (R)-5-Biphenyl-4-yl-4-[(2-hydroxy-pyrimidine-5-carbonyl)-amino]-2,2-dimethyl-pentanoic acid], the inhibition constant Ki was 1.26 to 10 nM.

On to `C[C@@](O)(CN(Cc1ccc(-c2cc(Cl)ccc2F)cc1)NC(=O)c1nnn[nH]1)C(=O)O` [Example 7-23, (R)-3-[N-(5′-Chloro-2′-fluorobiphenyl-4-ylmethyl)-N′-(1H-tetrazole-5-carbonyl)-hydrazino]-2-hydroxy-2-methyl-propionic acid], for which the Ki is 1.26 to 10 nM.

Turning to `CC(C)(C[C@@H](Cc1ccc(-c2ccccc2)cc1)NC(=O)c1cc(C(=O)N2CCOCC2)n[nH]1)C(=O)O` [Example 9-8, (R)-5-Biphenyl-4-yl-2,2-dimethyl-4-{[5-(morpholine-4-carbonyl)-2H-pyrazole-3-carbonyl]-amino}-pentanoic acid], the Ki was 12.6 to 100 nM.

As to `C[C@@](O)(CN(Cc1ccc(-c2cccc(Cl)c2)cc1)NC(=O)c1cc(O)no1)C(=O)O` [Example 7-11, (R)-3-[N-(3′-Chlorobiphenyl-4-ylmethyl)-N′-(3-hydroxy-isoxazole-5-carbonyl)-hydrazino]-2-hydroxy-2-methyl-propionic acid], the inhibitory constant (Ki) was no more than 1 nM.

In the case of `CC(O)(C[C@@H](Cc1ccc(-c2ccccc2)cc1)NC(=O)c1nc[nH]n1)C(=O)O` (stereo partly drawn) [Example 2-2, (R)-5-Biphenyl-4-yl-2-hydroxy-2-methyl-4-[(2H-[1,2,4]triazole-3-carbonyl)-amino]-pentanoic acid], the Ki was 12.6 to 100 nM.

Take `CC(O)(CN(Cc1ccc(-c2ccccc2)cc1)NC(=O)c1cc(O)no1)C(=O)O` (stereo not shown) [Example 3B, 3-[N-Biphenyl-4-ylmethyl-N′-(3-hydroxy-isoxazole-5-carbonyl)-hydrazino]-2-hydroxy-2-methyl-propionic acid]: the Ki was 1.26 to 10 nM.

As for `CC(C)(C[C@@H](Cc1ccc(-c2ccccc2)cc1)NC(=O)c1cc(C(=O)NCCc2c[nH]cn2)n[nH]1)C(=O)O` [Example 9-17, (R)-5-Biphenyl-4-yl-4-({5-[2-(1H-imidazol-4-yl)-ethylcarbamoyl]-2H-pyrazole-3-carbonyl}-amino)-2,2-dimethyl-pentanoic acid], the Ki is 12.6 to 100 nM.

In the case of `COc1ccccc1-c1ccc(CN(C[C@@](C)(O)C(=O)O)NC(=O)c2cc(O)no2)cc1` [Example 7-14, (R)-2-Hydroxy-3-[N′-(3-hydroxy-isoxazole-5-carbonyl)-N-(2′-methoxy-biphenyl-4-ylmethyl)-hydrazino]-2-methyl-propionic acid], the Ki was 1.26 to 10 nM.

For `C[C@@](O)(CN(Cc1ccc(-c2cc(F)ccc2F)cc1)NC(=O)c1cc(O)no1)C(=O)O` [Example 7-18, (R)-3-[N-(2′,5′-Difluorobiphenyl-4-ylmethyl)-N′-(3-hydroxy-isoxazole-5-carbonyl)-hydrazino]-2-hydroxy-2-methyl-propionic acid], the inhibitory constant (Ki) is 1.26 to 10 nM.

With `CC(C)CN(C)C(=O)c1cc(C(=O)N[C@H](Cc2ccc(-c3ccccc3)cc2)CC(C)(C)C(=O)O)[nH]n1` [Example 9-14, (R)-5-Biphenyl-4-yl-4-{[5-(isobutyl-methyl-carbamoyl)-2H-pyrazole-3-carbonyl]-amino}-2,2-dimethyl-pentanoic acid], the inhibition constant Ki was 12.6 to 100 nM.

As for `CC(C)(C[C@@H](Cc1ccc(-c2ccccc2)cc1)NC(=O)c1cc(O)no1)C(=O)O` [Example 8A, (R)-5-Biphenyl-4-yl-4-[(3-hydroxy-isoxazole-5-carbonyl)-amino]-2,2-dimethyl-pentanoic acid], the inhibition constant Ki was no more than 1 nM.

As for `CN(C)C(=O)c1cc(C(=O)NN(Cc2ccc(-c3ccccc3)cc2)CC(C)(O)C(=O)O)[nH]n1` (stereo not shown) [Example 4-7, 3-[N-Biphenyl-4-ylmethyl-N′-(5-dimethylcarbamoyl-2H-pyrazole-3-carbonyl)-hydrazino]-2-hydroxy-2-methyl-propionic acid], the Ki was 12.6 to 100 nM.

As to `CN(C)C(=O)c1cc(C(=O)N[C@H](Cc2ccc(-c3ccccc3)cc2)CC(C)(C)C(=O)O)[nH]n1` [Example 9-13, (R)-5-Biphenyl-4-yl-4-[(5-dimethylcarbamoyl-2H-pyrazole-3-carbonyl)-amino]-2,2-dimethyl-pentanoic acid], the Ki is 12.6 to 100 nM.

For the compound `CC(O)(CN(Cc1ccc(-c2ccccc2)cc1)NC(=O)c1nnc(Cl)[nH]1)C(=O)O` (stereo not shown) [Example 4-2, 3-[N-Biphenyl-4-ylmethyl-N′-(5-chloro-4H-[1,2,4]triazole-3-carbonyl)-hydrazino]-2-hydroxy-2-methyl-propionic acid], the Ki was 126 to 1000 nM.

Consider `C[C@](O)(C[C@@H](Cc1ccc(-c2ccccc2)cc1)NC(=O)c1cnn[nH]1)C(=O)O` [Example 2-1, (2S,4R)-5-Biphenyl-4-yl-2-hydroxy-2-methyl-4-[(3H-[1,2,3]triazole-4-carbonyl)-amino]-pentanoic acid], for which the inhibitory constant (Ki) was 12.6 to 100 nM.

(Values after patent US9725448B2, “Neprilysin inhibitors” (THERAVANCE BIOPHARMA R&D IP, LLC, priority 2011, dated 2017).)
